Assay results from US11414413B2, “Heterocyclic compound as JAK inhibitor, and salts and therapeutic use thereof” (Suzhou Longbiotech Pharmaceuticals Co., Ltd., priority 2016, dated 2022).

Columns and labels:
Wistar rats = test: Effect of repeated administration on hematological parameters in rats; assay type: in vivo, rat
Description: 48 healthy Wistar rats were taken, half ♀ and half ♂. According to the body weight, they were randomly divided into the control group (Veh). The compound of Example 3 was administered by gavage at doses of 1.5 mg·kg^−1·d^−1 and 4.5 mg·kg^−1·d^−1. Ruxolitinib was administered by gavage at dose of 4.5 mg·kg^−1·d^−1. There were 12 rats in each group, half ♀ and half ♂. The drug was administered by gavage once a day for 4 weeks, and the hematological parameters were examined 1 day and 2 days after the last administration.

JAK2 = JAK2 (Homo sapiens (Human), UniProt O60674); test: Inhibition of JAK2, luminescence kinase assay (ADP-Glo); assay type: biochemical; settings: purified recombinant JAK2
Description: (§1) The study of the effect of compounds on the activity of purified recombinant JAK was performed by studying the inhibitory activity of the compounds on JAK from the enzymatic level. The experimental principle is to use a luminescence kinase assay to detect the ADP content produced by the reaction of JAK with the substrate Poly (4:1 Glu, Tyr) peptide: after ADP is converted to ATP, ATP can act as a substrate for the Ultra-Glo luciferase catalytic reaction, producing an optical signal. The luminescence signal is positively correlated with the amount of ADP and kinase activity. Therefore, the inhibitory effect of the compounds on the recombinant JAK was determined by observing the luminescence signal produced by the reaction of JAK and the substrate, and was expressed by IC50.
(§2) Experimental method: 10 different concentrations of compounds were incubated with JAK1, JAK2 and JAK3, respectively, for 60 minutes at 37° C. The substrate and ATP were then added, mixed, and reacted at 37° C. for 50 minutes. 25 μl of ADP-Glo™ was added and mixed for 2 minutes. The reaction was carried out for 50 minutes at room temperature. Further, 50 μl of the detection reagent was added and mixed for 2 minutes, and incubated at room temperature for 50 minutes, and detected by a chemiluminometer.

JAK3 = JAK3 (Homo sapiens (Human), UniProt P52333); test: Inhibition of JAK3, luminescence kinase assay (ADP-Glo); assay type: biochemical; settings: purified recombinant JAK3
Description: as §1, §2

JAK1 = JAK1 (Homo sapiens (Human), UniProt P23458); test: Inhibition of JAK1, luminescence kinase assay (ADP-Glo); assay type: biochemical; settings: purified recombinant JAK1
Description: as §1, §2

[1] = gavage 4.5 mg·kg−1·d−1 once a day for 4 weeks

Chain of JAK1 (P23458 whole entry): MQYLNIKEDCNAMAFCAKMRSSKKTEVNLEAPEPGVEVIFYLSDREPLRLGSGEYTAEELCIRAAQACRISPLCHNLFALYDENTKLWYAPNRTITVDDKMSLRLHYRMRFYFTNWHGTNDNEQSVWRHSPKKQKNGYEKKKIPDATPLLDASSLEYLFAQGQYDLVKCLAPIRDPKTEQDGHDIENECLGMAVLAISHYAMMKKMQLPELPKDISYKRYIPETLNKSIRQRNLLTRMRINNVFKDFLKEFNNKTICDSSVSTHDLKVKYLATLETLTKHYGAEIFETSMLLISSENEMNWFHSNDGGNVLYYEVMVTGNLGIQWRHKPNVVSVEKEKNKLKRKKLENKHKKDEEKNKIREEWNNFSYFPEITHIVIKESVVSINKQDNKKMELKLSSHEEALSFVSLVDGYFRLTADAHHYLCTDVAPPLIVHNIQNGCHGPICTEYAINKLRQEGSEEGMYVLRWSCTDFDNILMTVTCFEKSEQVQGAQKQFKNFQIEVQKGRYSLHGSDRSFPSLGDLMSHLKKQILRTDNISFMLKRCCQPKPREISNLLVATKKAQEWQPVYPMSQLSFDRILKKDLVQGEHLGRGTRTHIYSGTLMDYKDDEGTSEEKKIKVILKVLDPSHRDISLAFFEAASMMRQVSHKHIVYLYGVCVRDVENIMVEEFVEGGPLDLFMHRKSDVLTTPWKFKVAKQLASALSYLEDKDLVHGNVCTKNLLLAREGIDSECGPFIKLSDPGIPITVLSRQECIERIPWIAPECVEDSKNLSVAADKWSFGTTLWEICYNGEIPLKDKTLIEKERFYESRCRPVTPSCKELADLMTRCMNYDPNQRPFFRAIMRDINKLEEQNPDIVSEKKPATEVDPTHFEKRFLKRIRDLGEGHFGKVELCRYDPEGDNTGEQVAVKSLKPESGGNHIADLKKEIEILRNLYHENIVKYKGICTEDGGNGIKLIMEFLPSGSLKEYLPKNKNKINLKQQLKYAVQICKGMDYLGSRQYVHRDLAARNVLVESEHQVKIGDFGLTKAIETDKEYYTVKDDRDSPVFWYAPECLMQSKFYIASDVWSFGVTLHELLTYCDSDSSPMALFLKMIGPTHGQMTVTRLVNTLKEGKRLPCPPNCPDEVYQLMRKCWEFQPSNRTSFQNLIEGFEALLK
Chain of JAK2 (O60674 whole entry): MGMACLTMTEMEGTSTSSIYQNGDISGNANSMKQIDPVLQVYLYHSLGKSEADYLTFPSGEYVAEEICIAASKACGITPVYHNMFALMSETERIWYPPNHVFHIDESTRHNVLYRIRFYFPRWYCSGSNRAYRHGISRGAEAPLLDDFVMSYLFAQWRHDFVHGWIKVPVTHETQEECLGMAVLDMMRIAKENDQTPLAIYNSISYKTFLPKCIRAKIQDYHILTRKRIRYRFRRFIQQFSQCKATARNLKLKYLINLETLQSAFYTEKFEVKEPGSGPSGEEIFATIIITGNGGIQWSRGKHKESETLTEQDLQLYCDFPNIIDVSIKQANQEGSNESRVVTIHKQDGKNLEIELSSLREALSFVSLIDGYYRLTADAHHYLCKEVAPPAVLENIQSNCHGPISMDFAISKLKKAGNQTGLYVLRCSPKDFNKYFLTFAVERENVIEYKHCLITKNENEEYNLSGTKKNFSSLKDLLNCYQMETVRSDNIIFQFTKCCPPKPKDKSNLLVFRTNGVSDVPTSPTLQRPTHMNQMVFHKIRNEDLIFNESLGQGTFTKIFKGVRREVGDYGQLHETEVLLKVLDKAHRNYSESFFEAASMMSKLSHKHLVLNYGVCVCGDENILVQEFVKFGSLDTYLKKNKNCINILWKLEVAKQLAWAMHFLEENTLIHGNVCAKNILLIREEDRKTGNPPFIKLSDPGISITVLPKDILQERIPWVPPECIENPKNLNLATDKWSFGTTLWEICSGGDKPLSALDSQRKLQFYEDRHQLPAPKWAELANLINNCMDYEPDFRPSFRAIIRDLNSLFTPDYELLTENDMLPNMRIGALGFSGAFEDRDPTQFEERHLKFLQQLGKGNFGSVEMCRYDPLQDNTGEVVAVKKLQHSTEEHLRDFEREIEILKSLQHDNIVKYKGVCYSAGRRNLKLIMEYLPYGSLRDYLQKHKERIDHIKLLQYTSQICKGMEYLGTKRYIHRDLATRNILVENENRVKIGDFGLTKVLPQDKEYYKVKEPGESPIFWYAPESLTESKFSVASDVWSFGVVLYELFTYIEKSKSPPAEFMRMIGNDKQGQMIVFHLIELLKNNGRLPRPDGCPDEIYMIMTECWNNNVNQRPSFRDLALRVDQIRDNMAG
Chain of JAK3 (P52333 whole entry): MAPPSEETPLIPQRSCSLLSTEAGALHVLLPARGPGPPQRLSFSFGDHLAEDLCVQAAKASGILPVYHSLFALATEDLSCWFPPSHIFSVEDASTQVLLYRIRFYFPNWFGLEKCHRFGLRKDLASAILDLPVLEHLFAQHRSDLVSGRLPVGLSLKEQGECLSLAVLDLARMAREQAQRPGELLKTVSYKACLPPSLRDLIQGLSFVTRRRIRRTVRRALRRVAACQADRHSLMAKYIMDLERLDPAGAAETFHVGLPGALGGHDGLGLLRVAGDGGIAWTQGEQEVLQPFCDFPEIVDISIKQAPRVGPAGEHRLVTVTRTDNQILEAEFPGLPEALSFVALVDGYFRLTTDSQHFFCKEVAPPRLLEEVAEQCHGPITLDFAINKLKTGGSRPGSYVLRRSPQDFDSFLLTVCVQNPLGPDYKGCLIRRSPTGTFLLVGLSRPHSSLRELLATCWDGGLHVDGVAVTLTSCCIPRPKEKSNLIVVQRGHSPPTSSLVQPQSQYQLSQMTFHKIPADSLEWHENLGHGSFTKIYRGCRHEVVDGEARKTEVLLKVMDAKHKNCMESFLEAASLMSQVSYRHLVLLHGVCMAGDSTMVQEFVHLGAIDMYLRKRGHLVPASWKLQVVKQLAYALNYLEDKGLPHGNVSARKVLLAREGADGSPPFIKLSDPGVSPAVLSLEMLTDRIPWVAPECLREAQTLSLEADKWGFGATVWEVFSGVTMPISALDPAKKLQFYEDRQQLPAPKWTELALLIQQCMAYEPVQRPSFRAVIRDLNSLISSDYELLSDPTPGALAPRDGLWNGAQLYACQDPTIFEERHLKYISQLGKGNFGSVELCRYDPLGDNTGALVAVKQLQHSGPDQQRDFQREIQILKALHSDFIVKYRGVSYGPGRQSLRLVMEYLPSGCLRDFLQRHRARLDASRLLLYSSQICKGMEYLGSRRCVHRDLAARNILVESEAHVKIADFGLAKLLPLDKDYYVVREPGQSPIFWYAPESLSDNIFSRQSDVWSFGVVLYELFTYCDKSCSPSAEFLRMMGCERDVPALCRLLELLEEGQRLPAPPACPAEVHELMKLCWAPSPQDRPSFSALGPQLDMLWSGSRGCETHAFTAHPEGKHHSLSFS

Structure (SMILES)	hematological parameter WBC compared with the control group (Veh) (Wistar rats; gavage 1.5 mg·kg−1·d−1 once a day for 4 weeks)	hematological parameter WBC compared with the control group (Veh) (Wistar rats; [1])	IC50 (JAK2) [nM]	IC50 (JAK3) [nM]	IC50 (JAK1) [nM]
N#CCC1(n2cc(-c3ncnc4[nH]ccc34)cn2)CCS(=O)(=O)CC1 [Example 3, 2-(4-(4-(7H-pyrrolo[2,3-d]pyrimidin-4-yl)-1H-pyrazol-1-yl)-1,1-dioxotetrahydro-2H-thiopyran-4-yl)acetonitrile]	no significant decrease	no significant decrease	20 to 50	–	–
CS(=O)(=O)N1CCC(CC(=O)NCC(F)(F)F)(n2cc(-c3ccnc4[nH]ccc34)cn2)CC1 [Example 24, 2-(4-(4-(7H-pyrrolo[2,3-b]pyridin-4-yl)-1H-pyrazol-1-yl)-1-(methylsulfonyl)piperidin-4-yl)-N-(2,2,2-trifluoroethyl)acetamide]	–	–	> 50	> 50	20 to 50
O=C(CC1(n2cc(-c3ccnc4[nH]ccc34)cn2)CCCC1)NCC(F)(F)F [Example 27, 2-(1-(4-(1H-pyrrolo[2,3-b]pyridin-4-yl)-1H-pyrazol-1-yl)cyclopentyl)-N-(2,2,2-trifluoroethyl) acetamide]	–	–	> 50	> 50	20 to 50
CC(C)(CC(=O)NCC(F)(F)F)n1cc(-c2c[nH]c3ncccc23)cn1 [Example 28, 3-(4-(1H-pyrrolo[2,3-b]pyridin-3-yl)-1H-pyrazol-1-yl)-3-methyl-N-(2,2,2-trifluoroethyl)butanamide]	–	–	20 to 50	> 50	> 50
CC(C)(CC(=O)NCC(F)(F)F)n1cc(-c2ncnc3[nH]ccc23)cn1 [Example 29]	–	–	20 to 50	< 20	> 50
O=C(NCC(F)(F)F)C1(Nc2ccnc(-c3c[nH]c4ncccc34)n2)CN(S(=O)(=O)C2CC2)C1 [Example 33, 3-((2-(1H-pyrrolo[2,3-b]pyridin-3-yl)pyrimidin-4-yl)amino)-1-(cyclopropylsulfonyl)-N-(2,2,2-trifluoroethyl)azetidin-3-carboxamide]	–	–	> 50	20 to 50	> 50
O=C(NCC(F)(F)F)C1(Nc2nc(-c3c[nH]c4ncccc34)ncc2F)CN(S(=O)(=O)C2CC2)C1 [Example 36]	–	–	> 50	20 to 50	> 50
CS(=O)(=O)N1CCC(Nc2ccnc(-c3c[nH]c4ncccc34)n2)(C(=O)NCC(F)(F)F)CC1 [Example 37, 4-((2-(1H-pyrrolo[2,3-b]pyridin-3-yl)pyrimidin-4-yl)amino)-1-(methylsulfonyl)-N-(2,2,2-trifluoroethyl)piperidin-4-carboxamide]	–	–	> 50	20 to 50	> 50
O=C(NCC(F)(F)F)C1(Nc2ccnc(-c3c[nH]c4ncccc34)n2)CCN(S(=O)(=O)C2CC2)CC1 [Example 39, 4-((2-(1H-pyrrolo[2,3-b]pyridin-3-yl)pyrimidin-4-yl)amino)-1-(cyclopropylsulfonyl)-N-(2,2,2-trifluoroethyl)piperidin-4-carboxamide]	–	–	> 50	20 to 50	> 50
O=C(NCC(F)(F)F)C1(Nc2nc(-c3c[nH]c4ncccc34)ncc2F)CCN(S(=O)(=O)C2CC2)CC1 [Example 42, 4-((5-fluoro-2-(1H-pyrrolo[2,3-b]pyridin-3-yl)pyrimidin-4-yl)amino)-1-(cyclopropylsulfonyl)-N-(2,2,2-trifluoroethyl)piperidin-4-carboxamide]	–	–	20 to 50	20 to 50	> 50
CCS(=O)(=O)N1CC(C#N)(Nc2ccnc(-c3c[nH]c4ncccc34)n2)C1 [Example 45, 3-((2-(1H-pyrrolo[2,3-b]pyridin-3-yl)pyrimidin-4-yl)amino)-1-(ethylsulfonyl) azetidine-3-carbonitrile]	–	–	20 to 50	20 to 50	> 50
CCS(=O)(=O)N1CC(C#N)(Nc2ccnc(-c3ncnc4[nH]ccc34)n2)C1 [Example 46, 3-((2-(7H-pyrrolo[2,3-d]pyrimidin-4-yl)pyrimidin-4-yl)amino)-1-(ethylsulfonyl)azetidine-3-carbonitrile]	–	–	> 50	> 50	> 50
CS(=O)(=O)N1CC(C#N)(Nc2ccnc(-c3c[nH]c4ncccc34)n2)C1 [Example 48, 3-((2-(1H-pyrrolo[2,3-b]pyridin-3-yl)pyrimidin-4-yl)amino)-1-(methylsulfonyl) azetidine-3-carbonitrile]	–	–	> 50	> 50	> 50
CS(=O)(=O)N1CC(C#N)(Nc2ccnc(-c3ncnc4[nH]ccc34)n2)C1 [Example 49, 3-((2-(7H-pyrrolo[2,3-d]pyrimidin-4-yl)pyrimidin-4-yl)amino)-1-(methylsulfonyl) azetidine-3-carbonitrile]	–	–	> 50	20 to 50	> 50
CS(=O)(=O)N1CC(C#N)(Nc2ccnc(-c3ccnc4[nH]ccc34)n2)C1 [Example 50, 3-((2-(1H-pyrrolo[2,3-b]pyridin-4-yl)pyrimidin-4-yl)amino)-1-(methylsulfonyl) azetidine-3-carbonitrile]	–	–	> 50	> 50	> 50
N#CC1(Nc2ccnc(-c3c[nH]c4ncccc34)n2)CCS(=O)(=O)CC1 [Example 51, 4-((2-(1H-pyrrolo[2,3-b]pyridin-3-yl)pyrimidin-4-yl)amino)tetrahydro-2H-thiopyran-4-carbonitrile 1,1-dioxide]	–	–	> 50	20 to 50	> 50
N#CC1(Nc2ccnc(-c3ncnc4[nH]ccc34)n2)CCS(=O)(=O)CC1 [Example 52, 4-((2-(7H-pyrrolo[2,3-d]pyrimidin-4-yl)pyrimidin-4-yl)amino)tetrahydro-2H-thiopyran-4-carbonitrile 1,1-dioxide]	–	–	> 50	> 50	> 50
N#CC1(Nc2ccnc(-c3ccnc4[nH]ccc34)n2)CCS(=O)(=O)CC1 [Example 53, 4-((2-(1H-pyrrolo[2,3-b]pyridin-4-yl)pyrimidin-4-yl)amino)tetrahydro-2H-thiopyran-4-carbo nitrile 1,1-dioxide]	–	–	> 50	20 to 50	> 50
N#CC1(Nc2ccnc(-c3ccnc4[nH]ccc34)n2)CCC1 [Example 56, 1-((2-(1H-pyrrolo[2,3-b]pyridin-4-yl)pyrimidin-4-yl)amino)cyclobutanecarbonitrile]	–	–	> 50	> 50	> 50
N#CC1(Nc2ccnc(-c3c[nH]c4ncccc34)n2)CCCC1 [Example 57, 1-((2-(1H-pyrrolo[2,3-b]pyridin-3-yl)pyrimidin-4-yl)amino)cyclopentanecarbonitrile]	–	–	> 50	20 to 50	> 50
N#CC1(Nc2ccnc(-c3ncnc4[nH]ccc34)n2)CCCC1 [Example 58, 1-((2-(7H-pyrrolo[2,3-d]pyrimidin-4-yl)pyrimidin-4-yl)amino)cyclopentanecarbonitrile]	–	–	> 50	> 50	> 50
N#CC1(Nc2ccnc(-c3ccnc4[nH]ccc34)n2)CCCC1 [Example 59, 1-((2-(1H-pyrrolo[2,3-b]pyridin-4-yl)pyrimidin-4-yl)amino)cyclopentanecarbonitrile]	–	–	> 50	20 to 50	> 50
CC[C@](C)(C#N)Nc1ccnc(-c2c[nH]c3ncccc23)n1 [Example 60]	–	–	> 50	20 to 50	> 50
CC[C@](C)(C#N)Nc1ccnc(-c2ncnc3[nH]ccc23)n1 [Example 61]	–	–	> 50	> 50	> 50
CC[C@](C)(C#N)Nc1ccnc(-c2ccnc3[nH]ccc23)n1 [Example 62]	–	–	> 50	> 50	> 50
N#CC[C@H](C1CCCC1)n1cc(-c2ncnc3[nH]ccc23)cn1 [Ruxolitinib, reference compound]	–	significant decrease	–	–	–
